A word on the MIC: it is the lowest concentration that inhibits growth of the organism.

Values after ≈ are worked out from the molar mass of the structure shown.

Common to all, as to format: functional
Assay [1] has as its system Staphylococcus aureus. Kind of assay: Antibacterial activity against Staphylococcus aureus assessed growth inhibition by micro broth dilution method.
Assay [2] relates to Staphylococcus aureus. Kind of assay: Antibacterial activity against Staphylococcus aureus ATCC 25923 assessed growth inhibition by micro broth dilution method. On the technique in general: Broth dilution looks for growth in wells or tubes with falling amounts of substance.
Assay [3] deals with Staphylococcus aureus. Kind of assay: Antibacterial activity against methicillin-resistant Staphylococcus aureus assessed growth inhibition by micro broth dilution method.
Assay [4] concerns Escherichia coli. Nature of the assay: Antibacterial activity against Escherichia coli ATCC 25922 assessed growth inhibition by micro broth dilution method.
The next assay concerns Enterococcus faecalis. Kind of assay: Antibacterial activity against Enterococcus faecalis assessed growth inhibition by micro broth dilution method.
Assay [5] has as its system Pseudomonas aeruginosa. Nature of the assay: Antibacterial activity against Pseudomonas aeruginosa ATCC 27853 assessed growth inhibition by micro broth dilution method.
Assay [6] has as its system Escherichia coli. Nature of the assay: Antibacterial activity against Escherichia coli assessed growth inhibition by micro broth dilution method.
Another assay concerns Acinetobacter baumannii. Kind of assay: Antibacterial activity against Acinetobacter baumannii assessed growth inhibition by micro broth dilution method.
In assay [7] the test system is Pseudomonas aeruginosa. Nature of the assay: Antibacterial activity against Pseudomonas aeruginosa assessed growth inhibition by micro broth dilution method.
For the next assay, the system named is Klebsiella pneumoniae. Nature of the assay: Antibacterial activity against Klebsiella pneumonia assessed growth inhibition by micro broth dilution method.
Assay [8] concerns Staphylococcus aureus. Kind of assay: Antibacterial activity against Staphylococcus aureus ATCC 29213 assessed growth inhibition by micro broth dilution method.

As for `CCOC(=O)c1cn(CCN2CCOCC2)c2cc(F)c(F)cc2c1=O`, the MIC was determined as 64 µg/mL (≈ 175 µM) in the assay on Staphylococcus aureus [1]; 256 µg/mL (≈ 699 µM) with Staphylococcus aureus [2]; 256 µg/mL (≈ 699 µM) in the assay with Staphylococcus aureus [3]; 128 µg/mL (≈ 349 µM) against Escherichia coli [4]; 128 µg/mL (≈ 349 µM) in the assay with Enterococcus faecalis; 128 µg/mL (≈ 349 µM) against Pseudomonas aeruginosa [5]. In addition, the MIC in the assay on Escherichia coli [6] is 2 µg/mL (≈ 5.46 µM); in the assay on Acinetobacter baumannii it was 2 µg/mL (≈ 5.46 µM); against Pseudomonas aeruginosa [7], 128 µg/mL (≈ 349 µM); against Klebsiella pneumoniae, 256 µg/mL (≈ 699 µM); with Staphylococcus aureus [8], 256 µg/mL (≈ 699 µM).
On to `CCOC(=O)c1cn(Cc2ccc(Cl)cc2)c2cc([C-](C#N)C(=O)OCC)c(F)cc2c1=O.[Na+]` (centres undefined), for which the MIC against Staphylococcus aureus [1] was found to be 64 µg/mL; against Staphylococcus aureus [2], 1 µg/mL; with Staphylococcus aureus [3] it was 64 µg/mL; in the assay with Escherichia coli [4] it was 1 µg/mL; against Enterococcus faecalis it was 1 µg/mL; with Pseudomonas aeruginosa [5], 2 µg/mL. For the same compound, the MIC against Escherichia coli [6] is 0.5 µg/mL; with Acinetobacter baumannii, 64 µg/mL; against Pseudomonas aeruginosa [7], 16 µg/mL; with Klebsiella pneumoniae, 2 µg/mL; against Staphylococcus aureus [8], 2 µg/mL.
On to `CCOC(=O)C(C#N)c1cc2c(cc1F)c(=O)c(C(=O)O)cn2CC` (centres undefined), for which the MIC in the assay with Staphylococcus aureus [1] amounted to 4 µg/mL (≈ 11.6 µM); with Staphylococcus aureus [2] it was 4 µg/mL (≈ 11.6 µM); with Staphylococcus aureus [3] it was 4 µg/mL (≈ 11.6 µM); in the assay with Escherichia coli [4], 0.5 µg/mL (≈ 1.44 µM); in the assay on Enterococcus faecalis it was 64 µg/mL (≈ 185 µM); with Pseudomonas aeruginosa [5], 4 µg/mL (≈ 11.6 µM). Moreover, the MIC against Escherichia coli [6] is 32 µg/mL (≈ 92.4 µM); with Acinetobacter baumannii it was 8 µg/mL (≈ 23.1 µM); against Pseudomonas aeruginosa [7], 8 µg/mL (≈ 23.1 µM); against Klebsiella pneumoniae it was 1 µg/mL (≈ 2.89 µM); in the assay on Staphylococcus aureus [8], 16 µg/mL (≈ 46.2 µM).
For the compound `CCOC(=O)c1cn(Cc2ccc(C)cc2)c2cc([C-](C#N)C(=O)OCC)c(F)cc2c1=O.[Na+]` (centres undefined), the MIC against Staphylococcus aureus [1] was 32 µg/mL; in the assay on Staphylococcus aureus [2], 0.5 µg/mL; in the assay with Staphylococcus aureus [3] it was 64 µg/mL; with Escherichia coli [4] it was 1 µg/mL; against Enterococcus faecalis it was 16 µg/mL; in the assay with Pseudomonas aeruginosa [5], 1 µg/mL. In addition, the MIC with Escherichia coli [6] was 1 µg/mL; in the assay on Acinetobacter baumannii, 2 µg/mL; in the assay with Pseudomonas aeruginosa [7] it was 8 µg/mL; in the assay on Klebsiella pneumoniae it was 2 µg/mL; in the assay with Staphylococcus aureus [8] it was 0.5 µg/mL.
With `CCOC(=O)c1cn(Cc2ccc([N+](=O)[O-])cc2)c2cc(F)c(F)cc2c1=O`, the MIC against Staphylococcus aureus [1] came out at 128 µg/mL (≈ 330 µM); with Staphylococcus aureus [2] it was 256 µg/mL (≈ 659 µM); against Staphylococcus aureus [3] it was 256 µg/mL (≈ 659 µM); with Escherichia coli [4], 128 µg/mL (≈ 330 µM); with Enterococcus faecalis it was 256 µg/mL (≈ 659 µM); in the assay with Pseudomonas aeruginosa [5], 256 µg/mL (≈ 659 µM). In addition, the MIC in the assay on Escherichia coli [6] was 2 µg/mL (≈ 5.15 µM); against Acinetobacter baumannii, 16 µg/mL (≈ 41.2 µM); against Pseudomonas aeruginosa [7] it was 256 µg/mL (≈ 659 µM); against Klebsiella pneumoniae, 256 µg/mL (≈ 659 µM); in the assay on Staphylococcus aureus [8], 256 µg/mL (≈ 659 µM).
`CCOC(=O)c1cn(Cc2ccc([N+](=O)[O-])cc2)c2cc(C(C#N)C(=O)OCC)c(F)cc2c1=O.[Na+]` (centres undefined): the MIC in the assay on Staphylococcus aureus [1] was 128 µg/mL; in the assay with Staphylococcus aureus [2], 1 µg/mL; in the assay on Staphylococcus aureus [3], 256 µg/mL; in the assay on Escherichia coli [4], 128 µg/mL; against Enterococcus faecalis, 32 µg/mL; against Pseudomonas aeruginosa [5] it was 64 µg/mL. The MIC in the assay on Escherichia coli [6] was determined as 0.5 µg/mL; against Acinetobacter baumannii, 128 µg/mL; against Pseudomonas aeruginosa [7] it was 128 µg/mL; against Klebsiella pneumoniae, 128 µg/mL; against Staphylococcus aureus [8], 64 µg/mL.
As to `CCCCCCn1cc(C(=O)OCC)c(=O)c2cc(F)c(F)cc21`, the MIC was 8 µg/mL (≈ 23.7 µM) with Staphylococcus aureus [1]; 128 µg/mL (≈ 379 µM) with Staphylococcus aureus [2]; 256 µg/mL (≈ 759 µM) in the assay on Staphylococcus aureus [3]; 64 µg/mL (≈ 190 µM) with Escherichia coli [4]; 64 µg/mL (≈ 190 µM) against Enterococcus faecalis; 256 µg/mL (≈ 759 µM) against Pseudomonas aeruginosa [5]. Further, the MIC in the assay on Escherichia coli [6] was 8 µg/mL (≈ 23.7 µM); against Acinetobacter baumannii it was 64 µg/mL (≈ 190 µM); in the assay with Pseudomonas aeruginosa [7] it was 64 µg/mL (≈ 190 µM); against Klebsiella pneumoniae, 64 µg/mL (≈ 190 µM); in the assay on Staphylococcus aureus [8], 128 µg/mL (≈ 379 µM).
With `CCOC(=O)c1cn(CC2CC2)c2cc(F)c(F)cc2c1=O`, the MIC in the assay on Staphylococcus aureus [1] amounted to 128 µg/mL (≈ 417 µM); against Staphylococcus aureus [2] it was 128 µg/mL (≈ 417 µM); in the assay with Staphylococcus aureus [3] it was 256 µg/mL (≈ 833 µM); with Escherichia coli [4], 64 µg/mL (≈ 208 µM); with Enterococcus faecalis, 128 µg/mL (≈ 417 µM); against Pseudomonas aeruginosa [5], 256 µg/mL (≈ 833 µM). Further, the MIC was determined as 16 µg/mL (≈ 52.1 µM) against Escherichia coli [6]; 256 µg/mL (≈ 833 µM) with Acinetobacter baumannii; 32 µg/mL (≈ 104 µM) against Pseudomonas aeruginosa [7]; 128 µg/mL (≈ 417 µM) in the assay on Klebsiella pneumoniae; 128 µg/mL (≈ 417 µM) against Staphylococcus aureus [8].
In the case of `CCOC(=O)c1cn2c3c(c(F)c(F)cc3c1=O)OC[C@@H]2C`, the MIC in the assay on Staphylococcus aureus [1] stood at 128 µg/mL (≈ 414 µM); with Staphylococcus aureus [2] it was 32 µg/mL (≈ 103 µM); against Staphylococcus aureus [3], 64 µg/mL (≈ 207 µM); in the assay on Escherichia coli [4], 128 µg/mL (≈ 414 µM); with Enterococcus faecalis, 128 µg/mL (≈ 414 µM); in the assay on Pseudomonas aeruginosa [5], 256 µg/mL (≈ 828 µM). Also, the MIC against Escherichia coli [6] is 16 µg/mL (≈ 51.7 µM); against Acinetobacter baumannii, 32 µg/mL (≈ 103 µM); in the assay with Pseudomonas aeruginosa [7], 128 µg/mL (≈ 414 µM); with Klebsiella pneumoniae it was 32 µg/mL (≈ 103 µM); in the assay on Staphylococcus aureus [8], 64 µg/mL (≈ 207 µM).

These data come from ChEMBL document CHEMBL5528028, “Discovery of benzopyridone cyanoacetates as new type of potential broad-spectrum antibacterial candidates” (Eur J Med Chem, 2024).
